# Data published in US9944602B2, “Piperidinone herbicides” (E. I. DU PONT DE NEMOURS AND COMPANY, priority 2014, dated 2018).
# Tests used:
# Type in all cases: in vivo
# [1] = test system: wheat (Triticum aestivum); experiment: Test A postemergence wheat; conditions: 0 to 100 scale, 0 is no effect, 100 is complete control
# In short: (§1)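 Scores are visual injury ratings on a 0–100 scale (100 = complete control) taken about 10 d after treatment, relative to untreated greenhouse controls. Preemergence: directed soil spray over planted seeds in loam/sand; postemergence: spray onto one- to two-leaf plants 2–10 cm high; surfactant-containing solvent formulation.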
# [2] = test system: foxtail, giant (giant foxtail, Setaria faberii); experiment: Test A preemergence foxtail, giant; conditions: 0 to 100 scale, 0 no effect, 100 complete control
# In short: as §1
# [3] = test system: foxtail, giant (giant foxtail, Setaria faberii); experiment: Test A postemergence foxtail, giant; conditions: 0 to 100 scale, 0 is no effect, 100 is complete control
# In short: as §1
# rice (Oryza sativa) [4] = experiment: Test C flooded paddy test rice; conditions: Table C, Flood, scale 0 to 100
# Description: (§2) Plant species in the flooded paddy test consisted of rice (Oryza sativa), sedge, umbrella (small-flower umbrella sedge, Cyperus difformis), ducksalad (Heteranthera limosa), and barnyardgrass (Echinochloa crus-galli) grown to the 2-leaf stage for testing. At time of treatment, test pots were flooded to 3 cm above the soil surface, treated by application of test compounds directly to the paddy water, and then maintained at that water depth for the duration of the test. Treated plants and controls were maintained in a greenhouse for 13 to 15 d, after which time all species were compared to controls and visually evaluated. Plant response ratings, summarized in Table C, are based on a scale of 0 to 100 where 0 is no effect and 100 is complete control. A dash (-) response means no test result.
# [5] = test system: sedge, umbrella (small-flower umbrella sedge, Cyperus difformis); experiment: Test C flooded paddy test sedge, umbrella; conditions: Table C, Flood, scale 0 to 100
# Description: as §2
# corn (Zea mays) = experiment: Test A postemergence corn; conditions: 0 to 100 scale, 0 is no effect, 100 is complete control
# In short: as §1
# [6] = test system: blackgrass (Alopecurus myosuroides); experiment: Test A postemergence blackgrass; conditions: 0 to 100 scale, 0 is no effect, 100 is complete control
# In short: as §1
# [7] = test system: ragweed (common ragweed, Ambrosia elatior); experiment: Test A preemergence ragweed; conditions: 0 to 100 scale, 0 no effect, 100 complete control
# In short: as §1
# [8] = test system: barnyardgrass (Echinochloa crus-galli); experiment: Test A postemergence barnyardgrass; conditions: 0 to 100 scale, 0 is no effect, 100 is complete control
# In short: as §1
# [9] = test system: pigweed (Amaranthus retroflexus); experiment: Test A postemergence pigweed; conditions: 0 to 100 scale, 0 is no effect, 100 is complete control
# In short: as §1
# [10] = test system: pigweed (Amaranthus retroflexus); experiment: Test A preemergence pigweed; conditions: 0 to 100 scale, 0 no effect, 100 complete control
# In short: as §1
# [11] = test system: barnyardgrass (Echinochloa crus-galli); experiment: Test A preemergence barnyardgrass; conditions: 0 to 100 scale
# In short: as §1
# [12] = test system: barnyardgrass (Echinochloa crus-galli); experiment: Test B flooded paddy test barnyardgrass; conditions: Table B, Flood
# In short: (§3)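 Water-applied paddy treatment: compound dosed into 3 cm flood on 2-leaf plants, read visually versus controls after 13 to 15 d.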
# [13] = test system: ryegrass, Italian (Italian ryegrass, Lolium multiflorum); experiment: Test A postemergence ryegrass, Italian; conditions: 0 to 100 scale, 0 is no effect, 100 is complete control
# In short: as §1
# [14] = test system: sedge, umbrella (small-flower umbrella sedge, Cyperus difformis); experiment: Test B flooded paddy test sedge, umbrella; conditions: Table B, Flood
# In short: as §3
# rice (Oryza sativa) [15] = experiment: Test B flooded paddy test rice; conditions: Table B, Flood
# In short: as §3
# [16] = test system: barnyardgrass (Echinochloa crus-galli); experiment: Test C flooded paddy test barnyardgrass; conditions: Table C, Flood, scale 0 to 100
# Description: as §2
# kochia (Kochia scoparia) [17] = experiment: Test A preemergence kochia; conditions: 0 to 100 scale, 0 no effect, 100 complete control
# In short: as §1
# [18] = test system: ryegrass, Italian (Italian ryegrass, Lolium multiflorum); experiment: Test A preemergence ryegrass, Italian; conditions: 0 to 100 scale, 0 no effect, 100 complete control
# In short: as §1
# [19] = test system: galium (catchweed bedstraw, Galium aparine); experiment: Test A postemergence galium; conditions: 0 to 100 scale, 0 is no effect, 100 is complete control
# In short: as §1
# [20] = test system: ragweed (common ragweed, Ambrosia elatior); experiment: Test A postemergence ragweed; conditions: 0 to 100 scale, 0 is no effect, 100 is complete control
# In short: as §1
# kochia (Kochia scoparia) [21] = experiment: Test A postemergence kochia; conditions: 0 to 100 scale, 0 is no effect, 100 is complete control
# In short: as §1
# [22] = test system: ducksalad (Heteranthera limosa); experiment: Test C flooded paddy test ducksalad; conditions: Table C, Flood, scale 0 to 100
# Description: as §2
# [23] = test system: ducksalad (Heteranthera limosa); experiment: Test B flooded paddy test ducksalad; conditions: Table B, Flood
# In short: as §3
smiles,measurement,setting,value
O=C1NCCC(c2cccc(C(F)(F)F)c2)C1C(=O)Nc1ccc(F)c(F)c1F (racemic) [Compound 28],"Plant response rating, Wheat",[1]; 125 g ai/ha,0
same,"Plant response rating, Wheat",[1]; 500 g ai/ha,20
same,"Foxtail, Giant plant response rating",[2]; 125 g ai/ha,90
same,"Foxtail, Giant plant response rating",[2]; 500 g ai/ha,90
same,"Plant response rating, Foxtail, Giant",[3]; 125 g ai/ha,70
same,"Plant response rating, Foxtail, Giant",[3]; 500 g ai/ha,90
same,Plant response rating,rice (Oryza sativa) [4]; 31 g ai/ha,0
same,Plant response rating,rice (Oryza sativa) [4]; 62 g ai/ha,0
same,Plant response rating,rice (Oryza sativa) [4]; 125 g ai/ha,0
same,Plant response rating,rice (Oryza sativa) [4]; 250 g ai/ha,0
same,Plant response rating,[5]; 31 g ai/ha,0
same,Plant response rating,[5]; 62 g ai/ha,0
same,Plant response rating,[5]; 125 g ai/ha,0
same,Plant response rating,[5]; 250 g ai/ha,0
same,"Plant response rating, Corn",corn (Zea mays); 125 g ai/ha,30
same,"Plant response rating, Corn",corn (Zea mays); 500 g ai/ha,60
same,"Plant response rating, Blackgrass",[6]; 125 g ai/ha,0
same,"Plant response rating, Blackgrass",[6]; 500 g ai/ha,20
same,Ragweed plant response rating,[7]; 125 g ai/ha,0
same,Ragweed plant response rating,[7]; 500 g ai/ha,0
same,"Plant response rating, Barnyardgrass",[8]; 125 g ai/ha,60
same,"Plant response rating, Barnyardgrass",[8]; 500 g ai/ha,80
same,"Plant response rating, Pigweed",[9]; 125 g ai/ha,0
same,"Plant response rating, Pigweed",[9]; 500 g ai/ha,0
same,Pigweed plant response rating,[10]; 125 g ai/ha,0
same,Pigweed plant response rating,[10]; 500 g ai/ha,20
same,Barnyardgrass plant response rating,"[11]; 125 g ai/ha, 0 no effect, 100 complete control",90
same,Barnyardgrass plant response rating,"[11]; 500 g ai/ha, 0 no effect, 100 complete control",90
same,Plant response rating,"[12]; 500 g ai/ha, scale 0 to 100",100
same,"Plant response rating, Ryegrass, Italian",[13]; 125 g ai/ha,0
same,"Plant response rating, Ryegrass, Italian",[13]; 500 g ai/ha,0
same,Plant response rating,"[14]; 500 g ai/ha, scale 0 to 100",0
same,Plant response rating,"rice (Oryza sativa) [15]; 500 g ai/ha, scale 0 to 100",15
same,Plant response rating,[16]; 31 g ai/ha,60
same,Plant response rating,[16]; 62 g ai/ha,65
same,Plant response rating,[16]; 125 g ai/ha,70
same,Plant response rating,[16]; 250 g ai/ha,75
same,Kochia plant response rating,kochia (Kochia scoparia) [17]; 125 g ai/ha,20
same,Kochia plant response rating,kochia (Kochia scoparia) [17]; 500 g ai/ha,20
same,"Ryegrass, Italian plant response rating",[18]; 125 g ai/ha,20
same,"Ryegrass, Italian plant response rating",[18]; 500 g ai/ha,40
same,"Plant response rating, Galium",[19]; 125 g ai/ha,0
same,"Plant response rating, Galium",[19]; 500 g ai/ha,0
same,"Plant response rating, Ragweed",[20]; 125 g ai/ha,0
same,"Plant response rating, Ragweed",[20]; 500 g ai/ha,0
same,"Plant response rating, Kochia",kochia (Kochia scoparia) [21]; 125 g ai/ha,0
same,"Plant response rating, Kochia",kochia (Kochia scoparia) [21]; 500 g ai/ha,0
same,Plant response rating,[22]; 31 g ai/ha,45
same,Plant response rating,[22]; 62 g ai/ha,50
same,Plant response rating,[22]; 125 g ai/ha,60
same,Plant response rating,[22]; 250 g ai/ha,70
same,Plant response rating,"[23]; 500 g ai/ha, scale 0 to 100",85
"O=C1NCCC(c2cccc(C(F)(F)F)c2)C1C(=O)Nc1cccc(F)c1F (stereo not shown) [Compound 9, N-(2,3-difluorophenyl)-2-oxo-4-[3-(trifluoromethyl)phenyl]-3-piperidinecarboxamide]",plant injury at 125 g/ha,"[1]; Triticum aestivum, post-emergence, 240 h, 125 g ai/ha, read-out: Plant response rating, Wheat",20%
same,plant injury at 500 g/ha,"[1]; Triticum aestivum, post-emergence, 240 h, 500 g ai/ha, read-out: Plant response rating, Wheat",40%
same,pest or weed control at 125 g/ha,"[2]; Setaria faberi, pre-emergence, 240 h, 125 g ai/ha, read-out: Foxtail, Giant plant response rating",90%
same,pest or weed control at 500 g/ha,"[2]; Setaria faberi, pre-emergence, 240 h, 500 g ai/ha, read-out: Foxtail, Giant plant response rating",90%
same,pest or weed control at 125 g/ha,"[3]; Setaria faberi, post-emergence, 240 h, 125 g ai/ha, read-out: Plant response rating, Foxtail, Giant",80%
same,pest or weed control at 500 g/ha,"[3]; Setaria faberi, post-emergence, 240 h, 500 g ai/ha, read-out: Plant response rating, Foxtail, Giant",90%
same,Plant response rating,rice (Oryza sativa) [4]; 1000 g ai/ha,10
same,Plant response rating,[5]; 1000 g ai/ha,0
same,"Corn plant response rating (crop injury, 0 = no effect, 100 = complete kill) at 125 g/ha","corn (Zea mays); Zea mays, post-emergence, 240 h, 125 g ai/ha",40%
same,"Corn plant response rating (crop injury, 0 = no effect, 100 = complete kill) at 500 g/ha","corn (Zea mays); Zea mays, post-emergence, 240 h, 500 g ai/ha",80%
same,pest or weed control at 125 g/ha,"[8]; Echinochloa crus-galli, post-emergence, 240 h, 125 g ai/ha, read-out: Plant response rating, Barnyardgrass",80%
same,pest or weed control at 500 g/ha,"[8]; Echinochloa crus-galli, post-emergence, 240 h, 500 g ai/ha, read-out: Plant response rating, Barnyardgrass",90%
same,pest or weed control at 125 g/ha,"[9]; Amaranthus retroflexus, post-emergence, 240 h, 125 g ai/ha, read-out: Plant response rating, Pigweed",0%
same,pest or weed control at 500 g/ha,"[9]; Amaranthus retroflexus, post-emergence, 240 h, 500 g ai/ha, read-out: Plant response rating, Pigweed",0%
same,pest or weed control at 125 g/ha,"[10]; Amaranthus retroflexus, pre-emergence, 240 h, 125 g ai/ha, read-out: Pigweed plant response rating",0%
same,pest or weed control at 500 g/ha,"[10]; Amaranthus retroflexus, pre-emergence, 240 h, 500 g ai/ha, read-out: Pigweed plant response rating",0%
same,"Plant response rating, Barnyardgrass","[11]; 500 g ai/ha, 0 is no effect, 100 is complete control",90
same,pest or weed control at 125 g/ha,"[11]; Echinochloa crus-galli, pre-emergence, 240 h, 125 g ai/ha, 0 no effect, 100 complete control, read-out: Barnyardgrass plant response rating",90%
same,pest or weed control at 250 g/ha,"[12]; Echinochloa crus-galli, 250 g ai/ha, scale 0 to 100, read-out: Plant response rating",75%
same,pest or weed control at 250 g/ha,"[14]; Cyperus difformis, 250 g ai/ha, scale 0 to 100, read-out: Plant response rating",0%
same,plant injury at 250 g/ha,"rice (Oryza sativa) [15]; Oryza sativa, 250 g ai/ha, scale 0 to 100, read-out: Plant response rating",0%
same,Plant response rating,[16]; 1000 g ai/ha,80
same,Plant response rating,[22]; 1000 g ai/ha,98
same,pest or weed control at 250 g/ha,"[23]; Heteranthera limosa, 250 g ai/ha, scale 0 to 100, read-out: Plant response rating",90%
